Source: the kinase profiling compilation of Christmann-Franck et al. (2016)

What was measured:
Assay in all cases: radiometric filter-binding kinase assay
[1] = tested on: AKT1 (human), P31749 [S473D]
[2] = tested on: AKT2 (human), P31751 [S474D]
CSNK2A1 (human) = CSNK2A1 (human) (UniProt P68400)
DYRK3 (human) = DYRK3 (human) (UniProt O43781)
EPHA2 (human) = EPHA2 (human) (UniProt P29317)
EPHB1 (human) = EPHB1 (human) (UniProt P54762)
FGFR1 (human) = FGFR1 (human) (UniProt P11362)
GSK3B (human) = GSK3B (human) (UniProt P49841)
INSR (human) = INSR (human) (UniProt P06213)
INSRR (human) = INSRR (human) (UniProt P14616)
IRAK4 (human) = IRAK4 (human) (UniProt Q9NWZ3)
LCK (mouse) = conditions: accession and sequence are those of the human protein
MAP2K1 (human) = MAP2K1 (human) (UniProt Q02750)
MAP2K6 (human) = MAP2K6 (human) (UniProt P52564)
MAP3K9 (human) = MAP3K9 (human) (UniProt P80192)
MAPK10 (human) = MAPK10 (human) (UniProt P53779)
MAPK11 (human) = MAPK11 (human) (UniProt Q15759)
MAPK13 (human) = MAPK13 (human) (UniProt O15264)
MARK1 (human) = MARK1 (human) (UniProt Q9P0L2)
MARK2 (human) = MARK2 (human) (UniProt Q7KZI7)
MKNK1 (human) = MKNK1 (human) (UniProt Q9BUB5)
MYLK (human) = MYLK (human) (UniProt Q15746)
NEK2 (human) = NEK2 (human) (UniProt P51955)
NEK6 (human) = NEK6 (human) (UniProt Q9HC98)
[3] = tested on: PAK2 (human), Q13177 [T402E]
PHKG1 (human) = PHKG1 (human) (UniProt Q16816)
PIM2 (human) = PIM2 (human) (UniProt Q9P1W9)
PIM3 (human) = PIM3 (human) (UniProt Q86V86)
PKN2 (human) = PKN2 (human) (UniProt Q16513)
ROCK2 (rat) = conditions: accession and sequence are those of the human protein
[4] = tested on: RPS6KB1 (human), P23443 [T412E]
SRPK1 (human) = SRPK1 (human) (UniProt Q96SB4)
[5] = molecular target: STK11 CAB39 STRADA (human) (UniProt Q9Y376+Q7RTN6+Q15831)
SYK (human) = SYK (human) (UniProt P43405)
TBK1 (human) = TBK1 (human) (UniProt Q9UHD2)
TTK (human) = TTK (human) (UniProt P33981)

PIM2 (human), sequence (Q9P1W9 whole entry, looked up): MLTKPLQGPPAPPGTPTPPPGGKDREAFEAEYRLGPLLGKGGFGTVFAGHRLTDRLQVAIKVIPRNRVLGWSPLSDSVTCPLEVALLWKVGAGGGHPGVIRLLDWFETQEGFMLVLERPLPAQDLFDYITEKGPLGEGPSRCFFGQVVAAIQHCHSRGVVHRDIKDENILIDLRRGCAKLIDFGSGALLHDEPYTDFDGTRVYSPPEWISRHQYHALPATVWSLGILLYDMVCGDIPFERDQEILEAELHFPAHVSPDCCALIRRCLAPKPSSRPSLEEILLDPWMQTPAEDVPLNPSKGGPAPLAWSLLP
PHKG1 (human), sequence (Q16816 whole entry, looked up): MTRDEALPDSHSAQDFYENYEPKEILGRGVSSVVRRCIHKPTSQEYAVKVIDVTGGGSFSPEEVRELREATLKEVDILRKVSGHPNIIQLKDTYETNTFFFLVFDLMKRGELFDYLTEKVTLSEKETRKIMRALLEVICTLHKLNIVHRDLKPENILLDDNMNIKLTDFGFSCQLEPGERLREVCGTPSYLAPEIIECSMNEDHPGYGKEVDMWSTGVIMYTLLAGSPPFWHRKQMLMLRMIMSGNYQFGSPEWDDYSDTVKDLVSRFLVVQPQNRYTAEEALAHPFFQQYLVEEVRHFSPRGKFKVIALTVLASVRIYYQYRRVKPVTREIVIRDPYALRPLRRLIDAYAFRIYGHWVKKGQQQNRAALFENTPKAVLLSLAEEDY
NEK2 (human), sequence (P51955 whole entry, looked up): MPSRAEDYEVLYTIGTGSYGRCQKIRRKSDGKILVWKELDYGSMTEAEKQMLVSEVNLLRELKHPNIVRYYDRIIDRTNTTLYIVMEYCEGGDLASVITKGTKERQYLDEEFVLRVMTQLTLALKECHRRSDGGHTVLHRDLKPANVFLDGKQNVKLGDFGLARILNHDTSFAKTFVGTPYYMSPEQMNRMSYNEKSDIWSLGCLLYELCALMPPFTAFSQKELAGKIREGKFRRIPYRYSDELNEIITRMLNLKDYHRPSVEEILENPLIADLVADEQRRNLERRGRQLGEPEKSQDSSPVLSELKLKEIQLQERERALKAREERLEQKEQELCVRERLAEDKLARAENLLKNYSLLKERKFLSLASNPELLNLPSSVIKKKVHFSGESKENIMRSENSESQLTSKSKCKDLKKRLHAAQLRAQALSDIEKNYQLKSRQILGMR
EPHB1 (human), sequence (P54762 whole entry, looked up): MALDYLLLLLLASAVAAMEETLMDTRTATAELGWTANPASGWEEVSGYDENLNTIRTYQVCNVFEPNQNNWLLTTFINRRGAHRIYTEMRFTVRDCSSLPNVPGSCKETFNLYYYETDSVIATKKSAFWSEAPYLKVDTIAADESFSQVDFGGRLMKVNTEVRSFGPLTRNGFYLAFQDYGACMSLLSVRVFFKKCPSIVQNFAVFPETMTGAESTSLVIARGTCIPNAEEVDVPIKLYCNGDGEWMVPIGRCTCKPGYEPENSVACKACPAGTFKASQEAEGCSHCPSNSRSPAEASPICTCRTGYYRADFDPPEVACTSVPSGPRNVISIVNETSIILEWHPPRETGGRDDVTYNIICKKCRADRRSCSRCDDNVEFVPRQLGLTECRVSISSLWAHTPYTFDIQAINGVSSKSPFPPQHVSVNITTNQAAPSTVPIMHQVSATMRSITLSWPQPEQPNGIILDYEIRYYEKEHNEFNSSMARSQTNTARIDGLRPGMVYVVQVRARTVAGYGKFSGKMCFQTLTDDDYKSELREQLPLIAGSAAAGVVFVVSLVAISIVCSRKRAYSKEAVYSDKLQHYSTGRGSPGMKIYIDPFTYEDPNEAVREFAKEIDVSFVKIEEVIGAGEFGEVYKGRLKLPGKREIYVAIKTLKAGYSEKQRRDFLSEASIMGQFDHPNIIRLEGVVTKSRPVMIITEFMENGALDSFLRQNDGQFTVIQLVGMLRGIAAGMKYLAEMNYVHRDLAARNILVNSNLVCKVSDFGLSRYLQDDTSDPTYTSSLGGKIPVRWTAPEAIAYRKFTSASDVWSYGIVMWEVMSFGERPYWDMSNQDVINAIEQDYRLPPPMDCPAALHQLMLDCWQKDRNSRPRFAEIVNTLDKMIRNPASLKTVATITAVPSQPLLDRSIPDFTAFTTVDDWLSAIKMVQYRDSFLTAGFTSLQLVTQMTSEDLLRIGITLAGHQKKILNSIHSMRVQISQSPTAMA
CSNK2A1 (human), sequence (P68400 whole entry, looked up): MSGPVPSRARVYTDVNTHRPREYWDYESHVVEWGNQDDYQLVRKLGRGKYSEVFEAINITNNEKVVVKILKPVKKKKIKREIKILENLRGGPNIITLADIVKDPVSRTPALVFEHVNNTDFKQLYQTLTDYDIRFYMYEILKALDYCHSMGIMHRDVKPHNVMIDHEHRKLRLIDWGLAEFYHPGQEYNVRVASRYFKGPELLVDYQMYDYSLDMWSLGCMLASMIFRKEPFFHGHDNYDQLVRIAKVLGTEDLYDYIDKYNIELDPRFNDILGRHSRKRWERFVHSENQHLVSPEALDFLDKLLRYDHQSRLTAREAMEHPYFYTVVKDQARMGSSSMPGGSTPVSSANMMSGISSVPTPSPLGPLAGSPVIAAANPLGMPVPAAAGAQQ
MARK2 (human), sequence (Q7KZI7 whole entry, looked up): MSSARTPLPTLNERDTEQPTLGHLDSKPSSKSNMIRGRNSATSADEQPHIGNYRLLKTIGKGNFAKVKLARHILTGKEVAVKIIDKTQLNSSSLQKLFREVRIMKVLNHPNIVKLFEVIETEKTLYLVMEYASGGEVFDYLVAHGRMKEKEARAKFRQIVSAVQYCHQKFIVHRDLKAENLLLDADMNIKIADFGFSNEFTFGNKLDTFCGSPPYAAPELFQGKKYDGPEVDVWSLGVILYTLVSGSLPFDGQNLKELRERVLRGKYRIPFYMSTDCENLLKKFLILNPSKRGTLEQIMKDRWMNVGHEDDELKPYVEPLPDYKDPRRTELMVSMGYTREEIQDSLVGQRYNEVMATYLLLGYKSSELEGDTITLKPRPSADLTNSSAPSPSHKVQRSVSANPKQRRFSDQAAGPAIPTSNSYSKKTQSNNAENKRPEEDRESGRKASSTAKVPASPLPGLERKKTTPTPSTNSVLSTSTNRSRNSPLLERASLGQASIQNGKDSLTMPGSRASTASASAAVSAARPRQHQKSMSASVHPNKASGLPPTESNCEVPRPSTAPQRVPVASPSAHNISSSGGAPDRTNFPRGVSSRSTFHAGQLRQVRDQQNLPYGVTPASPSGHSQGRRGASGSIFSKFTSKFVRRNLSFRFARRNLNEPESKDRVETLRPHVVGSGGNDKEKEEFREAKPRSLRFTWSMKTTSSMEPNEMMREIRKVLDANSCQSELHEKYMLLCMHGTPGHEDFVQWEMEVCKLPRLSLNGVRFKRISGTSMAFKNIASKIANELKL
INSR (human), sequence (P06213 whole entry, looked up): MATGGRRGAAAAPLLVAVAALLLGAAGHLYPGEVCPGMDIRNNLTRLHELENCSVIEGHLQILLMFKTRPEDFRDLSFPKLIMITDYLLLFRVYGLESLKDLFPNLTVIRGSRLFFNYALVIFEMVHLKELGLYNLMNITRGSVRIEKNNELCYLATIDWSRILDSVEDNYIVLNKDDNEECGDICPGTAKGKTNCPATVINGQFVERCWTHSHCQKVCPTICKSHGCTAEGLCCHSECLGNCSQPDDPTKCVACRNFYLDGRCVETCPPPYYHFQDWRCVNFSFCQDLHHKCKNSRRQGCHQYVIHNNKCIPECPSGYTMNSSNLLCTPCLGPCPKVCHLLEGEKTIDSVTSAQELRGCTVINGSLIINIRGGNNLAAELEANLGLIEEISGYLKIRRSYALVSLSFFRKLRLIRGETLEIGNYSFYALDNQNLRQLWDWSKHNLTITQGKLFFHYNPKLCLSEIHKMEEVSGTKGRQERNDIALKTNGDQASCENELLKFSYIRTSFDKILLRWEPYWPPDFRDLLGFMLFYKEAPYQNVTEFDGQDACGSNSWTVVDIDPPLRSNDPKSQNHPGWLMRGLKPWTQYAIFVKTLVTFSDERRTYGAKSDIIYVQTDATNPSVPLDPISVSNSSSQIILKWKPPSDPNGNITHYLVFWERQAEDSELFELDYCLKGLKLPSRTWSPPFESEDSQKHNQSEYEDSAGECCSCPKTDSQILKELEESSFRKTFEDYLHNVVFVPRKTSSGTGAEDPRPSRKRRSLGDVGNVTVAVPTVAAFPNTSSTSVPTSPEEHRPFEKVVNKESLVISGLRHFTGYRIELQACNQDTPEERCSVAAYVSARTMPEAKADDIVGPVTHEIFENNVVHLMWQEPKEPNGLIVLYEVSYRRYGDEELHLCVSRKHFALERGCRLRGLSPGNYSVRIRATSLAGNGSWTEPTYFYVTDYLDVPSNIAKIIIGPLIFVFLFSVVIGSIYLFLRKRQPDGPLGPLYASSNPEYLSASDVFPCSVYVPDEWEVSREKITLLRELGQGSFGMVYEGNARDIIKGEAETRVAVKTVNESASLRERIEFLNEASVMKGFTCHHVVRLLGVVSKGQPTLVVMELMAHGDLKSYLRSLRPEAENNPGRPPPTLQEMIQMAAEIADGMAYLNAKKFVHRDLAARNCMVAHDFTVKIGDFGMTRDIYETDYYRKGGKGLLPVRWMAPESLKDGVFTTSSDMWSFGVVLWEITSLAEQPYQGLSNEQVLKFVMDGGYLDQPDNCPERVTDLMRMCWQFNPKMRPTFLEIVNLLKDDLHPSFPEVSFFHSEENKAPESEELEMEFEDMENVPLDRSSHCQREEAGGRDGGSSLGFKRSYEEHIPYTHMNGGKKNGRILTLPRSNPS
NEK6 (human), sequence (Q9HC98 whole entry, looked up): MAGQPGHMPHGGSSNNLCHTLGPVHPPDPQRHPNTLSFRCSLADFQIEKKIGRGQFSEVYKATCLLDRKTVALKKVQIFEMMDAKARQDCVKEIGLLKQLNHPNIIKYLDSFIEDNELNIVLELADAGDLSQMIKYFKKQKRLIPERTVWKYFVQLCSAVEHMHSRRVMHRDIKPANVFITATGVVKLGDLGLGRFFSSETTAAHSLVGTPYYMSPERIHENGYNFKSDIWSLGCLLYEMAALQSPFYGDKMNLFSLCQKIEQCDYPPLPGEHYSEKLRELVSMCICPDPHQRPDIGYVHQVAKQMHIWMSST

## NC(=O)c1cc(-c2ccnc(NC3CCCCC3)c2)nc(N2CCNCC2)c1
[1]; compound 0.1 µM
  residual activity: 109%
[1]; compound 1.0 µM
  residual activity: 106%
[1]; compound 10.0 µM
  residual activity: 94%
[2]; compound 0.1 µM
  residual activity: 97%
[2]; compound 1.0 µM
  residual activity: 57%
[2]; compound 10.0 µM
  residual activity: 3%
CSNK2A1 (human); compound 0.1 µM
  residual activity: 107%
CSNK2A1 (human); compound 1.0 µM
  residual activity: 110%
CSNK2A1 (human); compound 10.0 µM
  residual activity: 65%
DYRK3 (human); compound 0.1 µM
  residual activity: 39%
DYRK3 (human); compound 1.0 µM
  residual activity: 14%
DYRK3 (human); compound 10.0 µM
  residual activity: 7%
EPHA2 (human); compound 0.1 µM
  residual activity: 78%
EPHA2 (human); compound 1.0 µM
  residual activity: 99%
EPHA2 (human); compound 10.0 µM
  residual activity: 82%
EPHB1 (human); compound 0.1 µM
  residual activity: 96%
EPHB1 (human); compound 1.0 µM
  residual activity: 111%
EPHB1 (human); compound 10.0 µM
  residual activity: 99%
FGFR1 (human); compound 0.1 µM
  residual activity: 110%
FGFR1 (human); compound 1.0 µM
  residual activity: 85%
FGFR1 (human); compound 10.0 µM
  residual activity: 82%
GSK3B (human); compound 0.1 µM
  residual activity: 86%
GSK3B (human); compound 1.0 µM
  residual activity: 82%
GSK3B (human); compound 10.0 µM
  residual activity: 51%
INSR (human); compound 0.1 µM
  residual activity: 89%
INSR (human); compound 1.0 µM
  residual activity: 86%
INSR (human); compound 10.0 µM
  residual activity: 93%
INSRR (human); compound 0.1 µM
  residual activity: 100%
INSRR (human); compound 1.0 µM
  residual activity: 107%
INSRR (human); compound 10.0 µM
  residual activity: 97%
IRAK4 (human); compound 0.1 µM
  residual activity: 96%
IRAK4 (human); compound 1.0 µM
  residual activity: 127%
IRAK4 (human); compound 10.0 µM
  residual activity: 92%
LCK (mouse); compound 0.1 µM
  residual activity: 84%
LCK (mouse); compound 1.0 µM
  residual activity: 30%
LCK (mouse); compound 10.0 µM
  residual activity: 9%
MAP2K1 (human); compound 0.1 µM
  residual activity: 86%
MAP2K1 (human); compound 1.0 µM
  residual activity: 77%
MAP2K1 (human); compound 10.0 µM
  residual activity: 49%
MAP2K6 (human); compound 0.1 µM
  residual activity: 92%
MAP2K6 (human); compound 1.0 µM
  residual activity: 29%
MAP2K6 (human); compound 10.0 µM
  residual activity: 16%
MAP3K9 (human); compound 1.0 µM
  residual activity: 69%
MAP3K9 (human); compound 10.0 µM
  residual activity: 103%
MAPK10 (human); compound 0.1 µM
  residual activity: 88%
MAPK10 (human); compound 1.0 µM
  residual activity: 79%
MAPK10 (human); compound 10.0 µM
  residual activity: 31%
MAPK11 (human); compound 0.1 µM
  residual activity: 99%
MAPK11 (human); compound 1.0 µM
  residual activity: 96%
MAPK11 (human); compound 10.0 µM
  residual activity: 62%
MAPK13 (human); compound 0.1 µM
  residual activity: 89%
MAPK13 (human); compound 1.0 µM
  residual activity: 93%
MAPK13 (human); compound 10.0 µM
  residual activity: 50%
MARK1 (human); compound 0.1 µM
  residual activity: 51%
MARK1 (human); compound 1.0 µM
  residual activity: 94%
MARK1 (human); compound 10.0 µM
  residual activity: 76%
MARK2 (human); compound 0.1 µM
  residual activity: 97%
MARK2 (human); compound 1.0 µM
  residual activity: 63%
MARK2 (human); compound 10.0 µM
  residual activity: 31%
MKNK1 (human); compound 0.1 µM
  residual activity: 95%
MKNK1 (human); compound 1.0 µM
  residual activity: 38%
MKNK1 (human); compound 10.0 µM
  residual activity: 7%
MYLK (human); compound 0.1 µM
  residual activity: 85%
MYLK (human); compound 1.0 µM
  residual activity: 40%
MYLK (human); compound 10.0 µM
  residual activity: 10%
NEK2 (human); compound 0.1 µM
  residual activity: 111%
NEK2 (human); compound 1.0 µM
  residual activity: 129%
NEK2 (human); compound 10.0 µM
  residual activity: 113%
NEK6 (human); compound 0.1 µM
  residual activity: 86%
NEK6 (human); compound 1.0 µM
  residual activity: 87%
NEK6 (human); compound 10.0 µM
  residual activity: 42%
[3]; compound 0.1 µM
  residual activity: 105%
[3]; compound 1.0 µM
  residual activity: 93%
[3]; compound 10.0 µM
  residual activity: 57%
PHKG1 (human); compound 0.1 µM
  residual activity: 82%
PHKG1 (human); compound 1.0 µM
  residual activity: 29%
PHKG1 (human); compound 10.0 µM
  residual activity: 5%
PIM2 (human); compound 0.1 µM
  residual activity: 99%
PIM2 (human); compound 1.0 µM
  residual activity: 102%
PIM2 (human); compound 10.0 µM
  residual activity: 99%
PIM3 (human); compound 0.1 µM
  residual activity: 97%
PIM3 (human); compound 1.0 µM
  residual activity: 58%
PIM3 (human); compound 10.0 µM
  residual activity: 42%
PKN2 (human); compound 0.1 µM
  residual activity: 96%
PKN2 (human); compound 1.0 µM
  residual activity: 66%
PKN2 (human); compound 10.0 µM
  residual activity: 19%
ROCK2 (rat); compound 0.1 µM
  residual activity: 99%
ROCK2 (rat); compound 10.0 µM
  residual activity: 51%
[4]; compound 0.1 µM
  residual activity: 92%
[4]; compound 1.0 µM
  residual activity: 96%
[4]; compound 10.0 µM
  residual activity: 94%
SRPK1 (human); compound 0.1 µM
  residual activity: 105%
SRPK1 (human); compound 1.0 µM
  residual activity: 86%
SRPK1 (human); compound 10.0 µM
  residual activity: 46%
[5]; compound 0.1 µM
  residual activity: 77%
[5]; compound 10.0 µM
  residual activity: 71%
SYK (human); compound 0.1 µM
  residual activity: 90%
SYK (human); compound 1.0 µM
  residual activity: 104%
SYK (human); compound 10.0 µM
  residual activity: 92%
TBK1 (human); compound 1.0 µM
  residual activity: 88%
TBK1 (human); compound 10.0 µM
  residual activity: 30%
TTK (human); compound 0.1 µM
  residual activity: 111%
TTK (human); compound 1.0 µM
  residual activity: 87%
TTK (human); compound 10.0 µM
  residual activity: 79%

## COc1cc(O)c2c(c1)/C=C/C[C@H](O)[C@H](O)C(=O)/C=C\C[C@H](C)OC2=O
[1]; compound 0.1 µM
  residual activity: 111%
[1]; compound 1.0 µM
  residual activity: 91%
[2]; compound 0.1 µM
  residual activity: 86%
[2]; compound 1.0 µM
  residual activity: 84%
CSNK2A1 (human); compound 0.1 µM
  residual activity: 106%
CSNK2A1 (human); compound 1.0 µM
  residual activity: 77%
DYRK3 (human); compound 0.1 µM
  residual activity: 94%
DYRK3 (human); compound 1.0 µM
  residual activity: 101%
EPHA2 (human); compound 0.1 µM
  residual activity: 99%
EPHA2 (human); compound 1.0 µM
  residual activity: 55%
EPHB1 (human); compound 0.1 µM
  residual activity: 99%
EPHB1 (human); compound 1.0 µM
  residual activity: 81%
FGFR1 (human); compound 1.0 µM
  residual activity: 87%
GSK3B (human); compound 0.1 µM
  residual activity: 102%
GSK3B (human); compound 1.0 µM
  residual activity: 74%
INSR (human); compound 0.1 µM
  residual activity: 110%
INSR (human); compound 1.0 µM
  residual activity: 94%
INSRR (human); compound 1.0 µM
  residual activity: 96%
IRAK4 (human); compound 0.1 µM
  residual activity: 99%
IRAK4 (human); compound 1.0 µM
  residual activity: 28%
LCK (mouse); compound 0.1 µM
  residual activity: 78%
LCK (mouse); compound 1.0 µM
  residual activity: 30%
MAP2K1 (human); compound 0.1 µM
  residual activity: 13%
MAP2K1 (human); compound 1.0 µM
  residual activity: 2%
MAP2K6 (human); compound 0.1 µM
  residual activity: 12%
MAP2K6 (human); compound 1.0 µM
  residual activity: 10%
MAP3K9 (human); compound 0.1 µM
  residual activity: 109%
MAP3K9 (human); compound 1.0 µM
  residual activity: 75%
MAPK10 (human); compound 0.1 µM
  residual activity: 107%
MAPK10 (human); compound 1.0 µM
  residual activity: 90%
MAPK11 (human); compound 0.1 µM
  residual activity: 90%
MAPK11 (human); compound 1.0 µM
  residual activity: 72%
MAPK13 (human); compound 0.1 µM
  residual activity: 99%
MAPK13 (human); compound 1.0 µM
  residual activity: 114%
MARK1 (human); compound 0.1 µM
  residual activity: 112%
MARK1 (human); compound 1.0 µM
  residual activity: 99%
MARK2 (human); compound 0.1 µM
  residual activity: 109%
MARK2 (human); compound 1.0 µM
  residual activity: 114%
MKNK1 (human); compound 0.1 µM
  residual activity: 55%
MKNK1 (human); compound 1.0 µM
  residual activity: 13%
MYLK (human); compound 0.1 µM
  residual activity: 108%
MYLK (human); compound 1.0 µM
  residual activity: 80%
NEK2 (human); compound 0.1 µM
  residual activity: 108%
NEK2 (human); compound 1.0 µM
  residual activity: 89%
NEK6 (human); compound 0.1 µM
  residual activity: 122%
NEK6 (human); compound 1.0 µM
  residual activity: 93%
[3]; compound 0.1 µM
  residual activity: 104%
[3]; compound 1.0 µM
  residual activity: 110%
PHKG1 (human); compound 0.1 µM
  residual activity: 100%
PHKG1 (human); compound 1.0 µM
  residual activity: 89%
PIM2 (human); compound 0.1 µM
  residual activity: 91%
PIM2 (human); compound 1.0 µM
  residual activity: 106%
PIM3 (human); compound 0.1 µM
  residual activity: 126%
PIM3 (human); compound 1.0 µM
  residual activity: 80%
PKN2 (human); compound 0.1 µM
  residual activity: 102%
PKN2 (human); compound 1.0 µM
  residual activity: 91%
ROCK2 (rat); compound 0.1 µM
  residual activity: 116%
ROCK2 (rat); compound 1.0 µM
  residual activity: 83%
[4]; compound 0.1 µM
  residual activity: 112%
[4]; compound 1.0 µM
  residual activity: 82%
SRPK1 (human); compound 0.1 µM
  residual activity: 104%
SRPK1 (human); compound 1.0 µM
  residual activity: 88%
[5]; compound 0.1 µM
  residual activity: 138%
[5]; compound 1.0 µM
  residual activity: 65%
SYK (human); compound 0.1 µM
  residual activity: 88%
SYK (human); compound 1.0 µM
  residual activity: 77%
TBK1 (human); compound 0.1 µM
  residual activity: 105%
TBK1 (human); compound 1.0 µM
  residual activity: 102%
TTK (human); compound 0.1 µM
  residual activity: 104%
TTK (human); compound 1.0 µM
  residual activity: 91%
